What all share (assay type): cell-based
In assay [1] the target is T1, p-EGFR L858R (BaF3-L858R cells) (Homo sapiens, UniProt P00533, L858R).
T1 construct: host or cells: BaF3
Put plainly: Cell p-EGFR inhibition assay, HTRF, BaF3-L858R cells. The conditions noted are these: 16 h treatment; for Imax (%): maximum percentage of pEGFR inhibition; for IC50: pEGFR inhibition. The method, boiled down:
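BaF3-L858R cells treated 16 h at 37 °C, 5% CO2 with compound from 10 uM top, 5-fold dilutions, 8 doses, in 0.1% DMSO medium. Lysates read overnight by HTRF p-EGFR antibodies; IC50 fitted to four-parameter curve against DMSO high control.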
A general note: Time-resolved FRET reads energy transfer from a long-lived donor to a nearby acceptor.

Assay [2] addresses T2, EGFR L858R (BaF3-L858R cells) (Homo sapiens, UniProt P00533, L858R).
T2 construct: host or cells: BaF3
Put plainly: Cell degradation of EGFR, HTRF assay, BaF3-L858R cells. The conditions noted are these: 16 h treatment; for DC50: EGFR degradation; for Dmax: maximum percentage of degradation. The gist of the method: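 BaF3-L858R cells treated 16 h at 37° C, 5% CO2 with compound (top 10 uM final, 5-fold, 8 doses, 0.1% DMSO). DC50 from four-parameter fit; Dmax is maximum percent degradation.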

Assay [3] addresses T3, EGFR-L858R/C797S (H1975-clone #8 cells) (Homo sapiens, UniProt P00533, C797S/L858R).
T3 construct: expressed in transfected cells; host or cells: H1975 (endogenous EGFR knocked out, clone #8)
Nature of the assay: Cell degradation of EGFR, HTRF assay, H1975-clone#8 (L858R/C797S) cells. The settings on record: 16 h treatment; for DC50: EGFR degradation; for Dmax: maximum percentage of degradation.

For assay [4], the target named is p-EGFR Del19/C797S (H1975-clone #23 cells) (Homo sapiens, UniProt P00533). Put plainly: Cell p-EGFR inhibition assay, HTRF, H1975-clone#23 (DEL19/C797S) cells. The settings on record: 16 h treatment; for Imax (%): maximum percentage of pEGFR inhibition; for IC50: pEGFR inhibition. The method, boiled down:
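Phospho-EGFR read by overnight HTRF on lysates, normalized to DMSO-treated high control; IC50, Hill slope and Imax fitted. Compounds were applied for 16 h (10 uM top, 5-fold steps, 8 doses) to an H1975 single clone carrying only exogenous Del19/C797S EGFR after sgRNA knockout of endogenous copies.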

The values that follow come from patent publication US20240425523A1, “Compounds for the Degradation of EGFR Kinase” (Beigene Switzerland GMBH, priority 2023, published 2024).

By IC50 is commonly meant the concentration that gives 50% inhibition. Higher therefore signals a need for much substance. Usually DC50 stands for the midpoint of the concentration-degradation curve. A higher DC50 goes with a less potent degrader. Broadly, the Dmax is the greatest extent of degradation seen. A high value points to deep degradation.

For the compound `Cc1cc2cc(n1)-c1c(C)nn(C)c1OC[C@H]1CC[C@H](C1)CN1/C(=N/C2=O)Nc2ccc(N3CCN(CC4CN(c5cc(F)c([C@H]6CCC(=O)NC6=O)c(F)c5)C4)CC3)cc21` [Example 199, (R)-3-(2,6-difluoro-4-(3-((4-((7^1R,7^3S,E)-1^1,1^3,2^6-trimethyl-3-oxo-5^2,5^3-dihydro-1^1H,5^1H-9-oxa-4-aza-5(2,1)-benzo[d]imidazola-2(2,4)-pyridina-1(4,5)-pyrazola-7(1,3)-cyclopentanacyclononaphane-5^6-yl)piperazin-1-yl)methyl)azetidin-1-yl)phenyl)piperidine-2,6-dione], in assay [1], the “Imax (%)” value amounted to 99.05% and the IC50 was < 0.128 nM. In assay [2], this compound had a DC50 of 6.02 nM and a Dmax of 82.5%. In assay [3], the DC50 was determined as 2.28 nM and the Dmax worked out at 91.8%. In assay [4], the “Imax (%)” value is given as 102.91% and the IC50 was found to be 2.92 nM.

For `Cc1cc2cc(n1)-c1c(C)nn(C)c1OC[C@H]1CC[C@H](C1)CN1/C(=N/C2=O)Nc2ccc(N3CCC(N(C)C4CN(c5cc(F)c([C@H]6CCC(=O)NC6=O)c(F)c5)C4)CC3)cc21` [Example 142, (R)-3-(2,6-difluoro-4-(3-(methyl(1-((7^1R,7^3S,E)-1^1,1^3,2^6-trimethyl-3-oxo-5^2,5^3-dihydro-1^1H,5^1H-9-oxa-4-aza-5(2,1)-benzo[d]imidazola-2(2,4)-pyridina-1(4,5)-pyrazola-7(1,3)-cyclopentanacyclononaphane-5^6-yl)piperidin-4-yl)amino)azetidin-1-yl)phenyl)piperidine-2,6-dione], in assay [1], the “Imax (%)” value was 97.8% and it took 4.77 nM to reach half-maximal inhibition (IC50). Besides, in assay [2], the DC50 was determined as 7.26 nM and the Dmax was 80.3%. In assay [3], this compound gave a DC50 of 0.748 nM and a Dmax of 87.3%. In assay [4], the “Imax (%)” value is 102.03% and the IC50 was 1.42 nM.

Turning to `Cc1cc2cc(n1)-c1cnn(C)c1OC[C@H]1CCC(C1)CN1/C(=N/C2=O)Nc2ccc(N3CCN(C4CCN(c5cc(F)c(C6CCC(=O)NC6=O)c(F)c5)CC4)[C@@H](C)C3)cc21` (stereo partly drawn) [Example 119, (R)-3-(4-(4-((S)-4-((7^1R,7^3S,E)-1^1,2^6-dimethyl-3-oxo-5^2,5^3-dihydro-1^1H,5^1H-9-oxa-4-aza-5(2,1)-benzo[d]imidazola-2(2,4)-pyridina-1(4,5)-pyrazola-7(1,3)-cyclopentanacyclononaphane-5^6-yl)-2-methylpiperazin-1-yl)piperidin-1-yl)-2,6-difluorophenyl)piperidine-2,6-dione], in assay [1], the “Imax (%)” value came to 94.3% and the IC50 was 18.2 nM. For the same compound, in assay [2], the DC50 came to 2.47 nM and the Dmax came out at 77%. In assay [3], this compound had a DC50 of 2.3 nM and a Dmax of 74.6%. In addition, in assay [4], the “Imax (%)” value amounted to 100.8% and the IC50 is 0.6 nM.

Turning to `COC[C@@H]1CN(c2ccc3c(c2)N2CC4CC[C@H](COc5c(cnn5C)-c5cc(cc(C)n5)C(=O)/N=C/2N3)C4)CCN1C1CN(C2CCN(c3cc(F)c([C@H]4CCC(=O)NC4=O)c(F)c3)CC2)C1` [Example 108, (R)-3-(4-(4-(3-((S)-4-((7^1R,7^3S,E)-1^1,2^6-dimethyl-3-oxo-5^2,5^3-dihydro-1^1H,5^1H-9-oxa-4-aza-5(2,1)-benzo[d]imidazola-2(2,4)-pyridina-1(4,5)-pyrazola-7(1,3)-cyclopentanacyclononaphane-5^6-yl)-2-(methoxymethyl)piperazin-1-yl)azetidin-1-yl)piperidin-1-yl)-2,6-difluorophenyl)piperidine-2,6-dione], the “Imax (%)” value in assay [1] came to 95.9%; in assay [4] it was 100.3%. For the same compound, the IC50 in assay [1] was determined as 7.7 nM; in assay [4], 0.6 nM. Besides, the DC50 turned out to be 3.32 nM in assay [2] and 0.75 nM in assay [3]. Further, the Dmax came out at 87.3% in assay [2] and 77% in assay [3].

`CC[C@H]1CN(c2ccc3c(c2)N2C[C@@H]4CC[C@H](COc5c(c(C)nn5C)-c5cc(cc(C)n5)C(=O)/N=C/2N3)C4)CCN1C1CCN(c2cc(F)c([C@H]3CCC(=O)NC3=O)c(F)c2)CC1` [Example 189, (R)-3-(4-(4-((S)-2-ethyl-4-((7^1R,7^3S,E)-1^1,1^3,2^6-trimethyl-3-oxo-5^2,5^3-dihydro-1^1H,5^1H-9-oxa-4-aza-5(2,1)-benzo[d]imidazola-2(2,4)-pyridina-1(4,5)-pyrazola-7(1,3)-cyclopentanacyclononaphane-5^6-yl)piperazin-1-yl)piperidin-1-yl)-2,6-difluorophenyl)piperidine-2,6-dione]: in assay [1], the “Imax (%)” value is on record as 92.5% and the IC50 was < 0.128 nM. In assay [2], the DC50 was 4.4 nM and the Dmax amounted to 87.6%. Also, in assay [3], half-maximal degradation (DC50) was put at 2.38 nM and the Dmax worked out at 90.2%. Moreover, in assay [4], the “Imax (%)” value stood at 100.03% and the IC50 was 2.11 nM.

Take `Cc1cc2cc(n1)-c1cnn(C)c1OC[C@H]1CCC(C1)CN1/C(=N/C2=O)Nc2ccc(N3CCN(C4CCN(c5c(F)cc(OC6CCC(=O)NC6=O)cc5F)CC4)CC3)cc21` (some centres unmarked) [Example 111, 3-(4-(4-(4-((7^1R,7^3S,E)-1^1,2^6-dimethyl-3-oxo-5^2,5^3-dihydro-1^1H,5^1H-9-oxa-4-aza-5(2,1)-benzo[d]imidazola-2(2,4)-pyridina-1(4,5)-pyrazola-7(1,3)-cyclopentanacyclononaphane-5^6-1)piperazin-1-yl)piperidin-1-yl)-3,5-difluorophenoxy)piperidine-2,6-dione]: the “Imax (%)” value worked out at 97.6% in assay [1] and 100.1% in assay [4]. Moreover, the IC50 in assay [1] worked out at 16.1 nM; in assay [4], 1 nM. Moreover, the DC50 in assay [2] stood at 3.18 nM; in assay [3] it was 1.92 nM. In addition, the Dmax in assay [2] worked out at 80.7%; in assay [3] it was 85.7%.

Consider `COC[C@@H]1CN(c2ccc3c(c2)N2CC4CC[C@H](COc5c(cnn5C)-c5cc(cc(C)n5)C(=O)/N=C/2N3)C4)CCN1C1CCN(c2cc(F)c(C3CCC(=O)NC3=O)nc2C)CC1` (stereo partly drawn) [Example 70, 3-(5-(4-((S)-4-((7^1R,7^3S,E)-1^1,2^6-dimethyl-3-oxo-5^2,5^3-dihydro-1^1H,5^1H-9-oxa-4-aza-5(2,1)-benzo[d]imidazola-2(2,4)-pyridina-1(4,5)-pyrazola-7(1,3)-cyclopentanacyclononaphane-5^6-yl)-2-(methoxymethyl)piperazin-1-yl)piperidin-1-yl)-3-fluoro-6-methylpyridin-2-yl)piperidine-2,6-dione], for which, in assay [1], the “Imax (%)” value is on record as 102.1% and the IC50 came out at 11 nM. In assay [2], this compound had a DC50 of 3.78 nM and a Dmax of 87.7%. For the same compound, in assay [3], half-maximal degradation (DC50) was put at 4.11 nM and the Dmax amounted to 73.5%. For the same compound, in assay [4], the “Imax (%)” value stood at 99.2% and the IC50 came out at 1.4 nM.
